Earlier results, collected in patent publication US12161733B2, “Chemical conjugates of Evans Blue derivatives and their use as radiotherapy and imaging agents for targeting prostate cancer” (THE UNITED STATES OF AMERICA, AS REPRESENTED BY THE …, priority 2018, dated 2024).

Tested on: prostate cancer patients

For `O=C([O-])CN1CCN(CC(=O)[O-])CCN(CC(=O)NCC2CCC(C(=O)N[C@@H](Cc3ccc4ccccc4c3)C(=O)NCCCC[C@H](NC(=O)N[C@@H](CCC(=O)O)C(=O)O)C(=O)O)CC2)CCN(CC(=O)[O-])CC1.[177Lu+3]` (some centres unmarked) [^177Lu-PSMA-617], the side effects (long-term toxicity unknown) is listed as “only stage 1-2 hematologic toxicities and sporadically mild xerostomia and fatigue” and the partial response rates (up to 3 cycles, response limited to as few as several weeks in some patients) is listed as 70%-80%.
